In patent US20110217293A1, “Uses of morelloflavone” (priority 2008, published 2011):
Several values for one entry are separate records, joined by “and”; a condition that tells them apart may be missing. Equal entries are not always repeated. Entries after “also recorded” stand apart in the source; their conditions may differ.

Columns and labels:
[1] = Serum morelloflavone level by HPLC; format: in vivo, mouse; details: treated apoE−/− mice, oral 0.15% w/w diet, at sacrifice
Experimental: Measurements were performed at a magnification of 200 using a Scion Image analysis computer program (Frederick, Md.). Data were obtained from the first 2 levels where endothelial denudation occurred. For each artery, the luminal area, area inside the internal elastic lamina (IELA), and the area encircled by external elastic lamina-IELA were measured. The intimal area (IA) was calculated as the IELA minus luminal area. For the determination of serum morelloflavone levels, animal sera were first digested by proteinase K in the presence of 0.01% SDS. Morelloflavone was then extracted into ethyl acetate and lyophilized.
The quantification of morelloflavone was performed by HPLC as described with following modifications. The pure morelloflavone was diluted to varying concentrations ([…]), aliquoted into multiple tubes, and lyophilized. The samples were dissolved in […] of 25% acetonitrile/0.55% acetic acid 10 of which […] were injected into a Vydac C-18 reversed phase HPLC column (Grace Davison Discovery Sciences, Deerfield, Ill.) in an Agilent 1100 HPLC system (San Jose, Calif.). […] The limit of detection (LOD) is defined as the concentration of morelloflavone that yielded a signal to noise of 2:1, and was calculated at 1.06 mM, from the 20 mM standard peak (signal to noise=37.6:1). […]

sPLA2-IB = sPLA2-IB (Homo sapiens, UniProt P04054); assay: sPLA2 enzyme activity assay, Group IB; format: biochemical; details: recombinant human sPLA2-IB, data not shown
Chain of sPLA2-IB (P04054 23-148): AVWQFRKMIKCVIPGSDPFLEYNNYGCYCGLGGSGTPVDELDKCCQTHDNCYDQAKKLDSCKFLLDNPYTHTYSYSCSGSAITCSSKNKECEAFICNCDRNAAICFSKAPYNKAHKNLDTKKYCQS
Experimental: Recombinant human sPLA2 isoforms, Group IB, Group IIA, Group V, and Lp-PLA2 were obtained from R&D Systems and Cayman Chemical Co. sPLA2 enzyme activities in the presence of various concentrations of morelloflavone or other inhibitors were determined using a commercially available assay system according to the manufacturer's instructions (Cayman Chemical Co.). Thioetheramide-1-palmitylthio-2-palmitoylamido-1,2-dideoxy-sn-glycero-3-phosphorylcholine (T-PC) and methyl arachidonyl fluorophosphonate (MAFP) were used as inhibitors of sPLA2 (IB, IIA, and V) and Lp-PLA2, respectively, per manufacturers' instructions.

Analysis of lipids = format: in vivo, mouse; details: Ldlr−/−Apobec1−/− mice, morelloflavone diet 8 months
Experimental: Plasma levels of triglycerides, total cholesterol, phospholipids, and non-esterified fatty acids of control and morelloflavone-treated animals were measured and using commercially available kits according to manufacturer's instruction (Randox Laboratories, Crumlin, UK; Thermo Fisher Scientific, Waltham, Mass.; Wako Chemicals, Richmond, Va.).

[2] = test system: focal adhesion kinase (FAK); assay: Western blot, phosphorylation of FAK; format: cell-based, mouse; details: low concentrations (0.1 & 1 mM), 5 min
Experimental: For the evaluation of phosphorylated FAK and c-Src, Western blot analyses were performed as described (15). Briefly, vascular smooth muscle cells were seeded on 10-cm dishes, treated with various concentrations of morelloflavone for 5 min, and harvested into RIPA buffer with protease inhibitor cocktails. Cleared cell lysates ([…] of protein) were incubated with anti-FAK or anti-c-Src antibodies at 4° C. for 1 hr in a final volume of 1 mL RIPA buffer, and incubated for another 1 hr with protein A/G agarose beads (Santa Cruz; SCBT sc-2003). Immunoprecipitated proteins were eluted into SDS-loading 7 buffer and subjected to 12% SDS-PAGE and immunoblotting using anti-FAK (Santa Cruz; A-17; sc-557) and anti-c-Src (Santa Cruz; SRC-2; sc-18) antibodies for total FAK and c-Src, respectively, and anti-phosphotyrosine antibody (Santa Cruz; PY-20; sc-508) for phosphorylated FAK and c-Src. Densitometric analyses were performed using Adobe Photoshop (Adobe Systems Incorporated, San Jose, Calif.).

[3] = test system: vascular smooth muscle cells; assay: DNA fragmentation (apoptosis) assay; format: cell-based
Experimental: Mouse vascular smooth muscle cells, isolated as described (13), were maintained in 231 media (Cascade Biologics, Portland, Oreg.) supplemented with SMGS (Cascade Biologics) in a humidified incubator at 37° C. with 5% CO2. Cells from passages 4-9 were used in all experiments. All experiments were performed in subconfluent, unsynchronized cells growing in SMGS except for the lamellipodium formation assay.
Vascular smooth muscle cells were seeded at 1×10^5 cells per well in 24-well culture plates, treated with morelloflavone, and subjected to DNA fragmentation assay, according to the manufacturer's instructions (Cell Death Detection ELISAPLUS, Roche). Briefly, the cells were treated with […] of morelloflavone for 24 hrs. The 1×10^5 cells were lysed, cleared by centrifugation, and transferred into streptavidin-coated plates. Anti-histone antibody conjugated to biotin and anti-nucleosomal-DNA-antibody conjugated to horseradish peroxidase were added. After incubation and washing, 2,2′-azino-bis-[3-ethylbenzthiazoline-6-sulfonic acid] (ABTS) substrate solution was added. The 5 absorbance rate at 405 nm against ABTS solution was measured with the reference wavelength of 490 nm.

Structure (SMILES): O=C1c2c(O)cc(O)cc2O[C@H](c2ccc(O)cc2)[C@H]1c1c(O)cc(O)c2c(=O)cc(-c3ccc(O)c(O)c3)oc12 [morelloflavone, 5,7, 4′, 5″, 7″, 3″, 4″-heptahydroxy-[3,8″]-flavonylflavanone]
- serum concentration of morelloflavone [1]: 1370 nM and 1400 nM
- IC50 (sPLA2-IB): > 10 µM
- change in serum phospholipid concentration (Analysis of lipids): no changes
- non-esterified fatty acid levels (Analysis of lipids): 0.89±0.13
- serum cholesterol (Analysis of lipids): 507.2 ± 95.8 mg/dL
- serum triglycerides (Analysis of lipids): 179.9±28.0
- phosphorylation of FAK [2]: inhibited; also recorded: robustly decreased phosphorylation; also recorded: blocks
- DNA fragmentation indices, trend with concentration ([3]; 0, 1, 10, 100 mM): decreased as morelloflavone concentrations increased
- apoptosis / induction of DNA fragmentation ([3]; concentrations equal to or less than 100 mM, 24 hrs): did not induce DNA fragmentation; also recorded: does not cause apoptosis; also recorded: does not induce cytotoxicity
